Measurements reported in patent publication US5684036A, “Cytotoxic macrolides and methods of use” (Harbor Branch Oceanographic Institution, Inc., priority 1995, dated 1997).
Converted amounts (≈) assume the structure as drawn. Where two headings read alike, the source gives them in different places.

Assays:
Format in all cases: cell-based
[1] = test system: P388 murine leukemia cells; test: antiproliferative effect against P388 murine leukemia cells (MTT, 48 hour exposure); settings: for IC50: Mus musculus, P388
Experimental: (§1) Lasonolide A was tested for toxicity against P388 murine leukemia cells and A549 human lung carcinoma cells, and for their ability to perturb signal transduction pathways associated with activation of protein kinase C (PKC) and EL-4 cell adherence.
(§2) A. Maintenance of cell line. The P388 murine leukemia cells were obtained from Dr. J. Mayo, National Cancer Institute, Bethesda, Md. The A549 cells and EL-4.IL-2 cells (TIB) were obtained from the American Type Culture Collection, Rockville, Md. The P388 cells were maintained in Roswell Park Memorial Institute medium 1640 (RPMI-1640) supplemented with 10% horse serum and cultured in plastic tissue culture flasks and kept in an incubator at 37° C. in humidified air containing 5% CO2. The A549 cells were similarly maintained in RPMI-1640 but supplemented with 10% fetal bovine serum. Antibiotic-free stock cultures of P388 and A549 cells were subcultured to 10^5 cells/mi by dilutions in fresh growth medium at 2 to 5 day intervals. The EL-4 cells were similarly maintained but supplemented with 10% v/v heat-inactivated fetal calf serum, 100 U/ml penicillin, 100 μg/ml streptomycin, 6/ μg/ml L-glutamine, and 5×10^-3 M 2-mercaptoethanol (TCM) (Grand Island Biologicals Co., Grand Island, N.Y.).
B. Procedure. […]
(§3) To quantitate the effects of Lasonolide A or its analogs on cell proliferation, 75 μl warm growth medium containing 5 mg/ml MTT was added to each well. […] To spectrophotometrically quantitate formation of reduced formazan, plates were centrifuged (900 g, 5 minutes), culture fluids were removed by aspiration, and 200 μl of acidified isopropanol (2 ml concentrated HCl/L isopropanol) added per well. The absorbance of the resulting solutions was measured at 570 nm with a plate reader (MR700 Microplate Reader, Dynatech Laboratories, Chantilly, Va.). […]

[2] = test system: A549 human lung carcinoma cells; test: antiproliferative effect against A549 human lung carcinoma cells (MTT, 72 hours)
Experimental: as §1
A. Maintenance of cell line. The P388 murine leukemia cells were obtained from Dr. J. Mayo, National Cancer Institute, Bethesda, Md. The A549 cells and EL-4.IL-2 cells (TIB) were obtained from the American Type Culture Collection, Rockville, Md. The P388 cells were maintained in Roswell Park Memorial Institute medium 1640 (RPMI-1640) supplemented with 10% horse serum and cultured in plastic tissue culture flasks and kept in an incubator at 37° C. in humidified air containing 5% CO2. The A549 cells were similarly maintained in RPMI-1640 but supplemented with 10% fetal bovine serum. […]
as §3

[3] = test system: EL-4 cell adherence (protein kinase C); test: EL-4 adherence assay (PKC-associated, with or without PMA); design: key to EL-4 Adherence: Inh: inhibition; settings: for IC50: Mus musculus, EL4
Experimental: as §1, §2
Cells were passaged every 3-4 days. Viability was determined by Trypan blue exclusion and always exceeded 80%. For the adherence assay, cells were utilized within 15 passages of frozen stock cultures. Phorbol-12-myristate-13-acetate (PMA), and 4α-phorbol-12-myristate-13-acetate (4α-PMA) were obtained from LC Services Corporation (Woburn, Mass.). Stock solutions of PMA and 4α-PMA were prepared in DMSO and were stored at -70° C. prior to use.
To assess the effect of the subject compound on EL-4 cells, EL-4 cells (2.5×10^5 /well) were cultured in 96-well, flat-bottomed microtiter test plates at 37° C. with the sponge metabolites in triplicate concentrations in the presence (Plate #1) or absence (Plate #2) of PMA (16 nM final concentration). […] Controls consisted of cells incubated alone (negative control) and cells incubated with PMA (positive control). An additional control plate (Plate #3), consisting of EL-4.1IL-2 cells and identical dilutions of compounds in the absence of PMA served as a cytotoxicity plate and was not processed for adherence as described below, but used to monitor the potential cytotoxic effect of compounds for EL-4.1IL2 cells. Incubation time was 1 hour at 37° C. Following the incubation period, Plates #1 and #2 were processed as follows: the contents of each well were removed by flicking the plates into a catch tray and placing the plates inverted onto a paper towel in order to drain and blot the remaining draining wells. To each well, a volume of 100 μl of TCM was added at room temperature and the plates placed on a rotating platform shaker (Mini-Orbital Shaker, BELLCO Biotechnology, Vineland, N.J.) at setting 5 for 4 minutes. The plates were then rotated 180° and subjected to an additional 4 minutes of shaking. The plates were removed and their contents again removed as described, blotted, TCM added to each well, and the plates placed on the rotating shaker. This process was repeated for two additional wash cycles.
Following the removal of well contents, a volume of 200 μl of TCM and 75 of MTT solution (2 mg/ml in TCM) was added to each well of all plates. Plates were incubated at 37° C. for an additional 4 hours. Following incubation, the contents of Plates #1 and #2 were again removed by flicking the plate into the sink and the plates blotted onto paper towels. Plate #3 was centrifuged and likewise blotted. A volume of 200 μl of iPrOH was then added to each well of all plates in order to dissolve the resulting formazan crystals. The plates were read at 570 nm using a plate reader (Microplate Autoreader, Model EL-311, BIO-TEK Instruments, Inc., Winooski, Vt.). The absorbances for each set of triplicate wells were averaged and the standard error determined. […]

tumor cell = test: inhibition of tumor cell growth (general statement); settings: in words

`C=C(CCC(C)C)COC(=O)C(O)C/C=C/CC1OC2/C=C\C/C=C/C(C)=C\C3OC(C/C=C/C=C/C(=O)OC(C2)C1(C)CO)CC(O)C3C` (stereo not shown) [Lasonolide A] was tested, and the IC50 ([1]; Table 4, MTT, 48 hours, read-out: P388 IC50) was 0.002 µg/mL (≈ 0.00287 µM), the IC50 ([1]; read-out: IC50 against mouse leukemia cells) was under 0.01 µg/mL and the “inhibitory properties against mouse leukemia cells” value ([1]; in words) was “strong inhibitory properties”. The IC50 ([2]; Table 4, MTT, 72 hours, read-out: A549 IC50) was 0.04 µg/mL (≈ 0.0574 µM), the IC50 ([2]; read-out: IC50 against cultured human lung carcinoma cells (A549)) was 0.04 µg/mL (≈ 0.0574 µM) and the IC50 ([3]; Table 4, Assay # 38, read-out: EL-4 Adherence IC50) was 0.019 µg/mL (≈ 0.0273 µM). For the same molecule, the IC50 ([3]; unit inferred, read-out: IC50 by EL-4 Adherence) was 0.019 µg/mL (≈ 0.0273 µM), the “EL-4 Adherence” value ([3]; Table 4, 3.125 μg/ml) was “Inh” and the “EL-4 Adherence” value ([3]; Table 4, 6.25 μg/ml) was “Inh”. The “EL-4 Adherence” value ([3]; Table 4, 12.5 μg/ml) was “Inh”, the “EL-4 Adherence” value ([3]; Table 4, 25 μg/ml) was “Inh” and the “Inhibition using the EL-4 Adherence assay” value ([3]; in words) was “strong”. For the same molecule, the “inhibition of tumor cell growth” value (tumor cell) was “inhibit tumor cell growth”.
